Reference: patent US20260216239A1 (Arizona Board of Regents on Behalf of the University of …, priority 2020, published 2026)
“Also recorded” adds a separate entry of the source.

Columns and labels:
Echis leucogaster venom = test: Thrombelastography in human plasma of venom procoagulant activity after isolated exposure of venom to compounds; assay type: biochemical
Description: Thrombelastographic analyses. The volumes of subsequently described plasmatic and other additives summed to a final volume of 360 μl. Samples were composed of 320 μl of plasma; 16.4 μl of PBS, 20 μl of 200 mM CaCl2), and 3.6 μl of PBS or venom mixture, which were pipetted into a disposable cup in a Thrombelastograph® hemostasis system (Model 5000, Haemonetics Inc., Braintree, MA, USA) at 37° C., and then rapidly mixed by moving the cup up against and then away from the plastic pin five times. The following viscoelastic parameters described previously (see, Nielsen V G (2019) J Thromb Thrombolysis 47, 73-79; Gessner G, et al., (2017) Eur J Pharmacol 815, 33-41; Nielsen V G, Wagner M T, Frank N (2020) Int J Mol Sci 21, 2082; Lazić D, Arsenijević A, Puchta R, Bugarčić ŽD, Rilak A (2016) Dalton Trans 45, 4633; Hanif M, et al., (2017) ChemPlusChem 82, 841-847) were measured: time to maximum rate of thrombus generation (TMRTG): this is the time interval (minutes) observed prior to maximum speed of clot growth; maximum rate of thrombus generation (MRTG): this is the maximum velocity of clot growth observed (dynes/cm^2/second); and total thrombus generation (TTG, dynes/cm^2), the final viscoelastic resistance observed after clot formation.
E. leucogaster. This venom was exposed to 0 or 100 μM CORM-2 in the presence of 0 or 100 μM RuCl3 in PBS for at least 5 minutes at room temperature prior to placement into plasma followed immediately with commencement of thrombelastographic analysis. The final concentration of this venom in plasma was 1 μg/ml.
Given the aforementioned, the experimental conditions utilized were: 1) V condition—venom in PBS; 2) Ru(II) condition—venom exposed to CORM-2; 3) Ru(III) condition—venom exposed to RuCl3; 4) Ru(II+III) condition—venom exposed to CORM-2 and RuCl3 simultaneously. After the 5 minute period at room temperature, 3.6 μl of one of these solutions was added to the plasma sample in the plastic thrombelastograph cup.
(§1) All venom solutions without or with chemical additions in isolation were added as a 1% addition to the plasma mix used in our thrombelastographic system (see, Nielsen, V. G.; et al., Biometals 2016, 29, 913-919; Nielsen, V. G.; Losada, P. A. Basic Clin. Pharmacol. Toxicol. 2017, 120, 207-212; Nielsen, V. G.; Frank, N. J. Thromb. Thrombolysis 2019, 47, 533-539; Nielsen, V. G.; Bazzell, C. M. J. Thromb. Thrombolysis 2017, 43, 203-208; Nielsen, V. G.; Matika, R. W. Hum. Exp. Toxicol. 2017, 36, 727-733; Nielsen, V. G.; et al., Toxins 2018, 10, 322; Nielsen, V. G.; et al., Biometals 2018, 31, 51-59; Nielsen, V. G.; Frank, N. et al., Biometals 2018, 31, 951-959; Nielsen, V. G.; et al., Toxins 2019, 11, 94; Nielsen, V. G.; Frank, N. Hum Exp. Toxicol. 2019, 38, 216-226; Nielsen, V. G. J. Thromb. Thrombolysis 2019, 48, 256-262; Nielsen, V. G.; et al., Blood Coagul. Fibrinolysis 2019, 30, 379-384; Nielsen, V. G. J. Thromb. Thrombolysis 2019, 47, 73-79; Gessner, G.; et al., Eur. J. Pharmacol. 2017, 815, 33-41). […] The thrombelastographic model describes coagulation kinetics with the following three variables: time to maximum thrombus generation (TMRTG, minutes—a measure of time to onset of coagulation), maximum rate of thrombus generation (MRTG, dynes/cm^2/s—a measure of the velocity of clot growth) and total thrombus generation (TTG, dynes/cm^2—a measure of clot strength).

Atheris nitschei venom = test: as above; assay type: biochemical; details: venom 1 μg/mL in plasma
Description: as §1
The volumes of subsequently described plasmatic and other additives summed to a final volume of 360 μL. Samples were composed of 320 μL of plasma; 16.4 μL of PBS, 20 μL of 200 mM CaCl2), and 3.6 μL of PBS, RuCl3, or venom solution mixture, which were pipetted into a disposable cup in a Thrombelastograph® hemostasis system (Model 5000, Haemonetics Inc., Braintree, MA, USA) at 37° C., and then rapidly mixed by moving the cup up against and then away from the plastic pin five times. The PBS, RuCl3, or venom solution mixtures was always the last constituent added prior to mixing and data collection. The following viscoelastic parameters described previously (see, Nielsen, V. G.; et al., Biometals 2016, 29, 913-919; Nielsen, V. G.; Losada, P. A. Basic Clin. Pharmacol. Toxicol. 2017, 120, 207-212; Nielsen, V. G.; Frank, N. J. Thromb. Thrombolysis 2019, 47, 533-539; Nielsen, V. G.; Bazzell, C. M. J. Thromb. Thrombolysis 2017, 43, 203-208; Nielsen, V. G.; Matika, R. W. Hum. Exp. Toxicol. 2017, 36, 727-733; Nielsen, V. G.; et al., Toxins 2018, 10, 322; Nielsen, V. G.; et al., Biometals 2018, 31, 51-59; Nielsen, V. G.; Frank, N. et al., Biometals 2018, 31, 951-959; Nielsen, V. G.; et al., Toxins 2019, 11, 94; Nielsen, V. G.; Frank, N. Hum Exp. Toxicol. 2019, 38, 216-226; Nielsen, V. G. J. Thromb. Thrombolysis 2019, 48, 256-262; Nielsen, V. G.; et al., Blood Coagul. Fibrinolysis 2019, 30, 379-384; Nielsen, V. G. J. Thromb. Thrombolysis 2019, 47, 73-79) were measured: time to maximum rate of thrombus generation (TMRTG): this is the time interval (minutes) observed prior to maximum speed of clot growth; maximum rate of thrombus generation (MRTG): this is the maximum velocity of clot growth observed (dynes/cm^2/s); and total thrombus generation (TTG, dynes/cm^2), the final viscoelastic resistance observed after clot formation. Data were collected until the clot strength reached its final plateau (maximum amplitude) that was stable for 3 min.

acute kidney injury = details: up to 30 mg/kg of CORM-2; cited from earlier work
[1] = 100 μM CORM-2, 100 μM RuCl3 or both, venom 1 μg/ml in plasma
[2] = venom exposed ≥5 min in PBS to 100 μM CORM-2, 100 μM RuCl3 or both, venom 1 μg/ml in plasma
[3] = venom exposed 5 min to 100 μM RuCl3 in PBS, venom 1 μg/mL in plasma (Example III)
[4] = venom exposed 5 min to 100 μM RuCl3 in PBS

Row | Compound | maximum rate of thrombus generation (MRTG) (Echis leucogaster venom; [1]) | time to maximum rate of thrombus generation (TMRTG) (Echis leucogaster venom; [1]) | procoagulant activity of venom (Echis leucogaster venom; venom exposed 5 min to 100 μM CORM-2 in PBS, venom 1 μg/mL in plasma (Example III)) | procoagulant activity of venom (Echis leucogaster venom; [2]) | procoagulant activity of venom (Atheris nitschei venom; venom exposed 5 min to 100 μM CORM-2 in 5% human albumin) | procoagulant activity of venom (Atheris nitschei venom; venom exposed 5 min to 100 μM CORM-2 in PBS) | protection against acute kidney injury (acute kidney injury) | tolerability (acute kidney injury) | maximum rate of thrombus generation (MRTG) (Echis leucogaster venom; [3]) | time to maximum rate of thrombus generation (TMRTG) (Echis leucogaster venom; [3]) | total thrombus generation (TTG) (Echis leucogaster venom; [3]) | maximum rate of thrombus generation (MRTG) (Atheris nitschei venom; [4]) | time to maximum rate of thrombus generation (TMRTG) (Atheris nitschei venom; [4]) | total thrombus generation (TTG) (Atheris nitschei venom; [4])
1 | [C-]#[O+].[C-]#[O+].[C-]#[O+].[C-]#[O+].[C-]#[O+].[C-]#[O+].[Cl][Ru][Cl].[Cl][Ru][Cl] [CORM-2, tricarbonyldichlororuthenium(II) dimer] | decrease | increased; also recorded: significant increase | significantly attenuated | significantly decreased; also recorded: procoagulant activity inhibition | uninhibited | significantly attenuated | protected against injury | well tolerated |  |  |  |  |  | 
2 | [Cl][Ru]([Cl])[Cl] [RuCl3, ruthenium(III) chloride] | decrease | increase |  | significantly diminished |  |  |  |  | decrease | significant increase | decrease | significant increase | very diminutive increase | significant increase
